Measurements reported in patent publication US7345091B2, “Carotenoid ether analogs or derivatives for the inhibition and amelioration of disease” (Cardax Pharmaceuticals, Inc., priority 2002, dated 2008).
Where a name gives a salt, the structure may show the parent alone. Read-outs that look alike come from different tables or passages of the source.

Assays:
[1] = Determination of water solubility; type: physicochemical
Experimental: A total of 30 mg of sample (disodium disuccinate astaxanthin derivative, as the all-trans mixture of stereoisomers 3S,3′S, meso, and 3R,3′R in a 1:2:1 ratio) was added to 2 mL of sterile-filtered ([…] Millipore®) deionized (DI) water in a 15 mL glass centrifuge tube. The tube was wrapped in aluminum foil and the mixture was shaken for 2 hours, then centrifuged at 3500 rpm for 10 minutes. The aqueous solution was filtered through a 0.45 micron PVDF disposable filter device. A 1 mL volume of filtrate was then diluted appropriately with DI water, and the concentration of the solution was measured at 480 nm using a four point calibration curve prepared from fresh sample.

superoxide anion = assay: Superoxide anion scavenging by EPR (DEPMPO spin trap) in phorbol ester-stimulated isolated neutrophils; type: cell-based, human; conditions: for potency relative to the SOD mimetic positive control: adjusted for percent inhibition and tested dose
Experimental: In an experiment, neutrophils were isolated on a Percoll gradient from whole blood from a human volunteer. The isolated neutrophils were then re-suspended in phosphate-buffered saline, and maximally stimulated with phorbol ester to induce the respiratory burst and production of superoxide anion. To the solution of activated human neutrophils, the disodium salt disuccinate astaxanthin derivative XVI was added at various concentrations, and the superoxide signal [as measured with electron paramagnetic resonance (EPR) spectroscopy] was subsequently measured. […] The disodium salt disuccinate astaxanthin derivative XVI tested at 100 μM scavenged 28% of the total signal. At 3 mM, almost no superoxide signal remained. […] In addition to reducing the superoxide anion signal important in ischemia-reperfusion injury, it is also likely that myocardial salvage can be achieved with the described carotenoid derivative, as superoxide anion plays a major role in tissue injury and death during prolonged myocardial ischemia. In a third experiment, neutrophils were again isolated on a Percoll gradient from whole blood from a second human volunteer. The isolated neutrophils were then re-suspended in phosphate-buffered saline, and maximally stimulated with phorbol ester to induce the respiratory burst and production of superoxide anion. […] Astaxanthin 2E was dissolved in HPLC grade dimethylsulfoxide (DMSO; Sigma-Aldrich, St. Louis, Mo.). The disodium disuccinate derivatives XVI of astaxanthin 2E were tested separately in […] formulations: statistical mixture of stereoisomers (as for astaxanthin, above, a 1:2:1 mixture of all-E; labeled as “mixture” in all tables and figures); 3S,3'S, and 3R,3'R (optical isomers or enantiomers); and meso (mixture of identical 3S,3'R and 3'S,3R; diastereomers of the enantiomeric pair). […] The disuccinate derivatives were first tested at the appropriate final concentrations in pure aqueous solution (deionized water) from stock solutions of 10 mM. Each of the four disuccinate derivatives were then tested from stock solutions prepared in a 1:2 mixture of ethanol (final concentration of EtOH in stock solution 331⁄3%; final concentration in isolated neutrophil assay 0.3%; HPLC grade ethanol, Sigma-Aldrich, St. Louis, Mo.) at 10 mM. […] Metaphore® Pharmaceuticals, Inc., St. Louis, Mo.) were also performed. Human polymorphonuclear leukocytes (PMNs) were isolated from freshly sampled venous blood of a single volunteer by Percoll density gradient centrifugation, which yielded PMNs with a purity of >95%. Each 10 mL of whole blood was mixed with 0.8 mL of 0.1 M EDTA and 25 mL of saline. The diluted blood was layered over 9 mL of Percoll at a specific density of 1.080 g/mL. After centrifugation at 400×g for 20 min at 20° C., the plasma, mononuclear cell, and Percoll layers were removed. Erythrocytes were lysed by addition of 18 mL of ice-cold water for 30 s, followed by 2 mL of 10× PIPES buffer (25 mM PIPES, 110 mM NaCl, and 5 mM KCl, titrated to pH 7.4 with NaOH). Cells were pelleted at 4° C., the supernatant was decanted, and the procedure was repeated. After the second hypotonic lysis, cells were washed twice with PAG buffer (PIPES buffer containing 0.003% human serum albumin and 0.1% glucose). Afterward, PMNs were counted by light microscopy on a hemocytometer. The final pellet was then suspended in PAG-CM buffer (PAG buffer with 1 mM CaCl2 and 1 mM MgCl2). All EPR measurements were performed using a Bruker ER 300 EPR spectrometer operating at X-band with a TM110 cavity. The microwave frequency was measured with a Model 575 microwave counter (EIP Microwave, Inc., San Jose, Calif.). To measure O^ -2 generation from phorbol-ester (PMA)-stimulated PMNs, EPR spin-trapping studies were performed using DEPMPO (Oxis, Portland, Oreg.) at 10 mM. 1×10^6 PMNs were stimulated with PMA (1 ng/mL) and loaded into capillary tubes for EPR measurements. […]

[2] = Liver accumulation of free astaxanthin after single oral dose; type: in vivo, male C57BL/6 mice
Experimental: Free astaxanthin concentration was also determined, at the same time points as for plasma samples, in liver. Livers were removed from each animal in the pharmacokinetic study after sacrifice, and snap frozen in liquid nitrogen. Liver tissue was prepared for HPLC analysis as described (Jewell, 1999). Therefore, simultaneous examination of liver accumulation of free astaxanthin was performed at the same time points as the plasma analyses. Up to 300 mg of liver from each animal was snap frozen in liquid nitrogen. Tissue homogenization and extraction were performed with a mixture of chloroform/methanol/water, according to the methods of Jewell (1999). Non-esterified, free astaxanthin accumulation in liver was then evaluated by HPLC as described above for plasma samples.

SMILES: CC1=C(/C=C/C(C)=C/C=C/C(C)=C/C=C/C=C(C)/C=C/C=C(C)/C=C/C2=C(C)C(=O)C(OC(=O)CCC(=O)O)CC2(C)C)C(C)(C)CC(OC(=O)CCC(=O)O)C1=O (racemic) [XVI, Disodium Salt of the Disuccinic Acid Ester of Astaxanthin]
- solubility at 2 h ([1]; deionized water, water, thermodynamic from solid, pure aqueous formulation): 8.64 mg/mL
- increase in solubility in the dosing vehicle ([1]; emulsion vs pure aqueous formulation): 6 fold
- solubility ([1]; olive oil/water/soybean lecithin emulsion, aqueous with cosolvent or surfactant or cyclodextrin, olive oil/water/soybean lecithin emulsion for oral gavage): ~50 mg/mL
- water solubility ([1]; pure aqueous formulation): approximately 8.64 mg/mL
- total superoxide signal scavenged (superoxide anion; 100 μM, first experiment (FIG. 2)): 28%
- suppression of superoxide anion signal (superoxide anion; 3 mM, first experiment (FIG. 2)): near complete suppression of the superoxide anion signal
- inhibition at 100 µM (superoxide anion; Homo sapiens, Neutrophil, Solvent EtOH (1:2 EtOH/water stock, 0.3% final), 0.1 mM, read-out: Mean (% inhibition) of superoxide anion signal): ~40%
- inhibition at 500 µM (superoxide anion; Homo sapiens, Neutrophil, Solvent EtOH, 0.5 mM, read-out: Mean (% inhibition) of superoxide anion signal): 60.1%
- inhibition at 1000 µM (superoxide anion; Homo sapiens, Neutrophil, Solvent EtOH, 1.0 mM, read-out: Mean (% inhibition) of superoxide anion signal): 78%
- inhibition at 3000 µM (superoxide anion; Homo sapiens, Neutrophil, Solvent EtOH, 3.0 mM, read-out: Mean (% inhibition) of superoxide anion signal): 95%
- inhibition at 100 µM (superoxide anion; Homo sapiens, Neutrophil, Solvent Water, 0.1 mM, read-out: Mean (% inhibition) of superoxide anion signal): 19.3%
- Mean (% inhibition) of superoxide anion signal (superoxide anion; Solvent EtOH (1:2 EtOH/water stock, 0.3% final), 0.1 mM, listed as Mixture): 38.0%
- potency relative to the SOD mimetic positive control (superoxide anion): one to two orders of magnitude less potent
- potency relative to the SOD mimetic positive control (superoxide anion; listed as disodium disuccinate derivative): between one and two orders of magnitude less potent
- Oral clearance ([2]; Liver, free astaxanthin, single 500 mg/kg oral dose): 15.856 L/h
- liver vs plasma levels of free astaxanthin at each sampling interval ([2]; single 500 mg/kg oral gavage in emulsion): equal or greater to that in plasma
